Results published in PubChem BioAssay (NCI).
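Five compound concentrations were applied to cells in 96-well plates for 48 hours; endpoints were derived by simple linear interpolation of the resulting dose-response curve. GI50 is the concentration that inhibits growth by half. The concentration for full growth arrest is given as TGI.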

How the values were obtained:
Test in all cases: growth of human tumour cells (NCI), 48 h; in the data active = GI50 below about 0.43 µM; inactive = the rest
IGROV1 ovarian = tested on: IGROV1 ovarian
K-562 leukemia = tested on: K-562 leukemia
SK-MEL-5 melanoma = tested on: SK-MEL-5 melanoma
TK-10 renal = tested on: TK-10 renal
SN12C renal = tested on: SN12C renal
SK-OV-3 ovarian = tested on: SK-OV-3 ovarian
SF-295 CNS = tested on: SF-295 CNS
MOLT-4 leukemia = tested on: MOLT-4 leukemia
DU-145 prostate = tested on: DU-145 prostate
HL-60(TB) leukemia = tested on: HL-60(TB) leukemia
OVCAR-8 ovarian = tested on: OVCAR-8 ovarian
RPMI-8226 leukemia = tested on: RPMI-8226 leukemia
RXF 393 renal = tested on: RXF 393 renal
ACHN renal = tested on: ACHN renal
KM12 colon = tested on: KM12 colon
SK-MEL-2 melanoma = tested on: SK-MEL-2 melanoma
COLO 205 colon = tested on: COLO 205 colon
MDA-MB-231 breast = tested on: MDA-MB-231 breast
MCF7 breast = tested on: MCF7 breast
A549 NSCLC = tested on: A549 NSCLC
NCI-H226 lung = tested on: NCI-H226 lung
U251 CNS = tested on: U251 CNS
SNB-75 CNS = tested on: SNB-75 CNS
HT29 colon = tested on: HT29 colon
CAKI-1 renal = tested on: CAKI-1 renal
SR leukemia = tested on: SR leukemia
CCRF-CEM leukemia = tested on: CCRF-CEM leukemia
HCT-15 colon = tested on: HCT-15 colon
HOP-92 NSCLC = tested on: HOP-92 NSCLC
UO-31 renal = tested on: UO-31 renal
NCI-H460 lung = tested on: NCI-H460 lung
786-0 renal = tested on: 786-0 renal
SK-MEL-28 melanoma = tested on: SK-MEL-28 melanoma
LOX IMVI melanoma = tested on: LOX IMVI melanoma
MALME-3M melanoma = tested on: MALME-3M melanoma
M14 melanoma = tested on: M14 melanoma
UACC-62 melanoma = tested on: UACC-62 melanoma
MDA-MB-435 = tested on: MDA-MB-435
OVCAR-5 ovarian = tested on: OVCAR-5 ovarian
A498 renal = tested on: A498 renal
HS 578T breast = tested on: HS 578T breast
PC-3 prostate = tested on: PC-3 prostate
SNB-19 CNS = tested on: SNB-19 CNS
OVCAR-3 ovarian = tested on: OVCAR-3 ovarian
T-47D breast = tested on: T-47D breast
HOP-62 NSCLC = tested on: HOP-62 NSCLC
SF-539 CNS = tested on: SF-539 CNS
NCI-H522 lung = tested on: NCI-H522 lung
SF-268 CNS = tested on: SF-268 CNS
EKVX NSCLC = tested on: EKVX NSCLC
HCC-2998 colon = tested on: HCC-2998 colon
SW-620 colon = tested on: SW-620 colon
OVCAR-4 ovarian = tested on: OVCAR-4 ovarian
NCI/ADR-RES ovarian = tested on: NCI/ADR-RES ovarian
UACC-257 melanoma = tested on: UACC-257 melanoma
NCI-H23 lung = tested on: NCI-H23 lung
HCT-116 colon = tested on: HCT-116 colon

COC(=O)[C@]12CC[C@@H](C(=O)/C=C/c3cccnc3)[C@@H]1[C@H]1CC[C@@H]3[C@@]4(C)C/C(=C/c5cccnc5)C(=O)C(C)(C)[C@@H]4CC[C@@]3(C)[C@]1(C)CC2
2.63 µM: TGI (SNB-75 CNS)
0.514 µM: TGI (OVCAR-3 ovarian)
2.42 µM: TGI (T-47D breast)
1.02 µM: TGI (SK-MEL-2 melanoma) | TGI (HT29 colon)
0.473 µM: TGI (SF-539 CNS)
2.03 µM: TGI (DU-145 prostate)
0.508 µM: TGI (MDA-MB-231 breast)
0.838 µM: TGI (RPMI-8226 leukemia)
0.947 µM: TGI (A498 renal)
1.01 µM: TGI (M14 melanoma)
1.67 µM: TGI (SN12C renal)
0.983 µM: TGI (SK-MEL-5 melanoma)
2 µM: TGI (CAKI-1 renal)
6.89 µM: TGI (SK-OV-3 ovarian)
1.44 µM: TGI (SF-295 CNS)
0.416 µM: TGI (MALME-3M melanoma)
1.34 µM: TGI (U251 CNS) | TGI (OVCAR-5 ovarian)
1.05 µM: TGI (KM12 colon) | TGI (UACC-62 melanoma)
1.51 µM: TGI (HL-60(TB) leukemia)
1.65 µM: TGI (CCRF-CEM leukemia)
2.09 µM: TGI (PC-3 prostate)
0.565 µM: TGI (SK-MEL-28 melanoma)
1.97 µM: TGI (SNB-19 CNS)
1.73 µM: TGI (HOP-92 NSCLC)
inactive: GI50 (TK-10 renal) 0.701 µM | GI50 (SN12C renal) 0.429 µM | GI50 (SK-OV-3 ovarian) 2.73 µM | GI50 (DU-145 prostate) 0.773 µM | GI50 (SNB-75 CNS) 1.35 µM | GI50 (CAKI-1 renal) 0.716 µM | GI50 (HOP-92 NSCLC) 0.434 µM | GI50 (NCI-H460 lung) 0.51 µM | GI50 (SNB-19 CNS) 0.665 µM | GI50 (HOP-62 NSCLC) 0.789 µM
0.57 µM: TGI (IGROV1 ovarian)
1.33 µM: TGI (786-0 renal)
0.666 µM: TGI (HCT-15 colon)
1.35 µM: TGI (COLO 205 colon)
2.34 µM: TGI (HOP-62 NSCLC)
1.57 µM: TGI (NCI-H460 lung)
0.509 µM: TGI (RXF 393 renal)
active: GI50 (IGROV1 ovarian) 0.241 µM | GI50 (K-562 leukemia) 0.309 µM | GI50 (SK-MEL-5 melanoma) 0.335 µM | GI50 (SF-295 CNS) 0.382 µM | GI50 (MOLT-4 leukemia) 0.359 µM | GI50 (HL-60(TB) leukemia) 0.292 µM | GI50 (OVCAR-8 ovarian) 0.388 µM | GI50 (RPMI-8226 leukemia) 0.258 µM | GI50 (RXF 393 renal) 0.219 µM | GI50 (ACHN renal) 0.191 µM | GI50 (KM12 colon) 0.317 µM | GI50 (SK-MEL-2 melanoma) 0.296 µM | GI50 (COLO 205 colon) 0.357 µM | GI50 (MDA-MB-231 breast) 0.223 µM | GI50 (MCF7 breast) 0.387 µM | GI50 (A549 NSCLC) 0.401 µM | GI50 (NCI-H226 lung) 0.26 µM | GI50 (U251 CNS) 0.36 µM | GI50 (HT29 colon) 0.319 µM | GI50 (SR leukemia) 0.281 µM | GI50 (CCRF-CEM leukemia) 0.334 µM | GI50 (HCT-15 colon) 0.247 µM | GI50 (UO-31 renal) 0.167 µM | GI50 (786-0 renal) 0.374 µM | GI50 (SK-MEL-28 melanoma) 0.245 µM | GI50 (LOX IMVI melanoma) 0.21 µM | GI50 (MALME-3M melanoma) 0.201 µM | GI50 (M14 melanoma) 0.31 µM | GI50 (UACC-62 melanoma) 0.327 µM | GI50 (MDA-MB-435) 0.204 µM | GI50 (OVCAR-5 ovarian) 0.369 µM | GI50 (A498 renal) 0.224 µM | GI50 (HS 578T breast) 0.395 µM | GI50 (PC-3 prostate) 0.412 µM | GI50 (OVCAR-3 ovarian) 0.231 µM | GI50 (T-47D breast) 0.405 µM | GI50 (SF-539 CNS) 0.207 µM
2.31 µM: TGI (A549 NSCLC)
2.07 µM: TGI (TK-10 renal)
0.348 µM: TGI (ACHN renal)
> 100 µM: TGI (K-562 leukemia)
1.87 µM: TGI (OVCAR-8 ovarian)
0.442 µM: TGI (LOX IMVI melanoma)
0.597 µM: TGI (NCI-H226 lung)
0.331 µM: TGI (UO-31 renal)
1.27 µM: TGI (SR leukemia)
0.42 µM: TGI (MDA-MB-435)
1.77 µM: TGI (MOLT-4 leukemia)
1.83 µM: TGI (MCF7 breast)
1.93 µM: TGI (HS 578T breast)

O=c1c2[nH]ccc2nc2n1CCS2
inactive: GI50 (IGROV1 ovarian) > 100 µM | GI50 (K-562 leukemia) > 100 µM | GI50 (TK-10 renal) > 100 µM | GI50 (SN12C renal) > 100 µM | GI50 (SK-OV-3 ovarian) > 100 µM | GI50 (SF-295 CNS) > 100 µM | GI50 (MOLT-4 leukemia) > 100 µM | GI50 (DU-145 prostate) > 100 µM | GI50 (HL-60(TB) leukemia) 46.6 µM | GI50 (NCI-H522 lung) > 100 µM | GI50 (OVCAR-8 ovarian) > 100 µM | GI50 (SF-268 CNS) > 100 µM | GI50 (RPMI-8226 leukemia) > 100 µM | GI50 (RXF 393 renal) > 100 µM | GI50 (ACHN renal) > 100 µM | GI50 (KM12 colon) > 100 µM | GI50 (EKVX NSCLC) > 100 µM | GI50 (HCC-2998 colon) > 100 µM | GI50 (SK-MEL-2 melanoma) > 100 µM | GI50 (COLO 205 colon) > 100 µM | GI50 (MDA-MB-231 breast) > 100 µM | GI50 (MCF7 breast) > 100 µM | GI50 (A549 NSCLC) > 100 µM | GI50 (SW-620 colon) > 100 µM | GI50 (NCI-H226 lung) > 100 µM | GI50 (U251 CNS) > 100 µM | GI50 (SNB-75 CNS) 33.6 µM | GI50 (HT29 colon) > 100 µM | GI50 (CAKI-1 renal) > 100 µM | GI50 (HCT-15 colon) > 100 µM | GI50 (HOP-92 NSCLC) > 100 µM | GI50 (UO-31 renal) > 100 µM | GI50 (NCI-H460 lung) > 100 µM | GI50 (786-0 renal) > 100 µM | GI50 (OVCAR-4 ovarian) > 100 µM | GI50 (SK-MEL-28 melanoma) > 100 µM | GI50 (LOX IMVI melanoma) > 100 µM | GI50 (NCI/ADR-RES ovarian) > 100 µM | GI50 (MALME-3M melanoma) > 100 µM | GI50 (M14 melanoma) > 100 µM | GI50 (UACC-62 melanoma) > 100 µM | GI50 (MDA-MB-435) > 100 µM | GI50 (OVCAR-5 ovarian) > 100 µM | GI50 (UACC-257 melanoma) > 100 µM | GI50 (A498 renal) > 100 µM | GI50 (HS 578T breast) > 100 µM | GI50 (PC-3 prostate) > 100 µM | GI50 (SNB-19 CNS) > 100 µM | GI50 (OVCAR-3 ovarian) > 100 µM | GI50 (T-47D breast) > 100 µM | GI50 (NCI-H23 lung) > 100 µM | GI50 (HOP-62 NSCLC) > 100 µM | GI50 (SF-539 CNS) > 100 µM | GI50 (HCT-116 colon) > 100 µM
0.913 µM: TGI (SK-MEL-5 melanoma)
active: GI50 (SK-MEL-5 melanoma) 0.324 µM
> 100 µM: TGI (IGROV1 ovarian) | TGI (K-562 leukemia) | TGI (TK-10 renal) | TGI (SN12C renal) | TGI (SK-OV-3 ovarian) | TGI (SF-295 CNS) | TGI (MOLT-4 leukemia) | TGI (DU-145 prostate) | TGI (HL-60(TB) leukemia) | TGI (NCI-H522 lung) | TGI (OVCAR-8 ovarian) | TGI (SF-268 CNS) | TGI (RPMI-8226 leukemia) | TGI (RXF 393 renal) | TGI (ACHN renal) | TGI (KM12 colon) | TGI (EKVX NSCLC) | TGI (HCC-2998 colon) | TGI (SK-MEL-2 melanoma) | TGI (COLO 205 colon) | TGI (MDA-MB-231 breast) | TGI (MCF7 breast) | TGI (A549 NSCLC) | TGI (SW-620 colon) | TGI (NCI-H226 lung) | TGI (U251 CNS) | TGI (SNB-75 CNS) | TGI (HT29 colon) | TGI (CAKI-1 renal) | TGI (HCT-15 colon) | TGI (HOP-92 NSCLC) | TGI (UO-31 renal) | TGI (NCI-H460 lung) | TGI (786-0 renal) | TGI (OVCAR-4 ovarian) | TGI (SK-MEL-28 melanoma) | TGI (LOX IMVI melanoma) | TGI (NCI/ADR-RES ovarian) | TGI (MALME-3M melanoma) | TGI (M14 melanoma) | TGI (UACC-62 melanoma) | TGI (MDA-MB-435) | TGI (OVCAR-5 ovarian) | TGI (UACC-257 melanoma) | TGI (A498 renal) | TGI (HS 578T breast) | TGI (PC-3 prostate) | TGI (SNB-19 CNS) | TGI (OVCAR-3 ovarian) | TGI (T-47D breast) | TGI (NCI-H23 lung) | TGI (HOP-62 NSCLC) | TGI (SF-539 CNS) | TGI (HCT-116 colon)
